Assays:
[1] = biological target: T1, Type-2 angiotensin II receptor (Homo sapiens, UniProt P50052); experiment: Binding affinity for angiotensin II AT-2 receptor
T1 sequence (P50052 whole entry): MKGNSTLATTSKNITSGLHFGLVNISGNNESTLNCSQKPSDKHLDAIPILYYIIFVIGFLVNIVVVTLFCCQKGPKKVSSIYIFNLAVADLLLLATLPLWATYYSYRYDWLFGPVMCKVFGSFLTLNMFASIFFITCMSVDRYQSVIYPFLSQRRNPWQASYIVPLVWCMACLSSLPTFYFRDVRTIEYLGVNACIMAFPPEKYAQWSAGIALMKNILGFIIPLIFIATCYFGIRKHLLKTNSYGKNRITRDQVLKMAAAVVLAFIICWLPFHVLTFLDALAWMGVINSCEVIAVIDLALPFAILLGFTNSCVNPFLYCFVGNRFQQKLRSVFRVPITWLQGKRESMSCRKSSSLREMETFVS

[2] = biological target: T2, Type-1 angiotensin II receptor (Homo sapiens, UniProt P30556); experiment: Binding affinity for Angiotensin II receptor, type 1
T2 sequence (P30556 whole entry): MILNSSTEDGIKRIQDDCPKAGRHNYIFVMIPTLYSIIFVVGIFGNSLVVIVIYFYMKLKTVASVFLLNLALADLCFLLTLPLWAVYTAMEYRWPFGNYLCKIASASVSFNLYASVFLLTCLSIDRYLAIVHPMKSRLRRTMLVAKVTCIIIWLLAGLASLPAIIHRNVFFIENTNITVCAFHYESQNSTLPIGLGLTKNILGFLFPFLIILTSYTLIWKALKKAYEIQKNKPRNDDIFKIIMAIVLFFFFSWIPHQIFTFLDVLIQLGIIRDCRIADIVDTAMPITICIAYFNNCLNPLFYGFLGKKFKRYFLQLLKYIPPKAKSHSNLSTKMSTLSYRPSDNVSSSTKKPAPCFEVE

SMILES | IC50 [1] | IC50 [2]
CCCc1nc(CC)c(C(=O)OCc2ccc(C(=O)c3ccccc3)cc2)n1Cc1ccc(-c2ccccc2-c2nn[nH]n2)cc1 | 2000 nM | 9 nM
CCCc1nc(CC)c(C(=O)OCCN(C(=O)OCCC(C)C)c2ccccc2)n1Cc1ccc(-c2ccccc2S(=O)(=O)NC(=O)OCCC(C)C)cc1F | 4 nM | 0.2 nM
CCCc1nc(CC)c(C(=O)OCc2ccccc2-c2ccccn2)n1Cc1ccc(-c2ccccc2S(=O)(=O)NC(=O)OCCC(C)C)cc1F | 3 nM | 0.3 nM
CCCc1nc(CC)c(C(=O)OCc2ccccc2C(=O)c2ccccc2)n1Cc1ccc(-c2ccccc2S(=O)(=O)NC(=O)OC)cc1 | 10 nM | 0.6 nM
CCCc1nc(CC)c(C(=O)OCCN(C(=O)c2ccccc2)c2ccccc2)n1Cc1ccc(-c2ccccc2S(=O)(=O)NC(=O)OCCC(C)C)cc1F | 2 nM | 0.1 nM
CCCc1nc(CC)c(C(=O)OCCC(=O)Nc2ccccc2)n1Cc1ccc(-c2ccccc2S(=O)(=O)NC(=O)OCCC(C)C)cc1F | 3 nM | 0.1 nM
CCCOC(=O)NS(=O)(=O)c1ccccc1-c1ccc(Cn2c(CCC)nc(CC)c2C(=O)OCc2ccccc2-c2cncnc2)c(F)c1 | 10 nM | 0.8 nM
CCCc1nc(CC)c(C(=O)NCc2ccccc2Sc2ccccc2)n1Cc1ccc(-c2ccccc2S(=O)(=O)NC(=O)OCCC(C)C)cc1F | 3 nM | 0.4 nM
CCCc1nc(CC)c(C(=O)OCc2ccc(C(=O)N(c3ccccc3)c3ccccc3)cc2)n1Cc1ccc(-c2ccccc2-c2nnn[nH]2)cc1 | 200 nM | 20 nM
CCCCN(Cc1ccccc1)C(=O)C#CCOC(=O)c1c(CC)nc(CCC)n1Cc1ccc(-c2ccccc2-c2nnn[nH]2)cc1 | 400 nM | 10 nM
CCCc1nc(CC)c(C(=O)OCCC[S+]([O-])c2ccccc2)n1Cc1ccc(-c2ccccc2S(=O)(=O)NC(=O)OCCC(C)C)cc1F (centres undefined) | 1 nM | 0.2 nM
CCCc1nc(CC)c(C(=O)OCCCC(=O)Nc2ccccc2)n1Cc1ccc(-c2ccccc2S(=O)(=O)NC(=O)OCCC(C)C)cc1F | 5 nM | 0.2 nM
CCCc1nc(CC)c(C(=O)OCCCOc2ccccc2)n1Cc1ccc(-c2ccccc2S(=O)(=O)NC(=O)OCCC(C)C)cc1F | 2 nM | 0.1 nM
CCCCOC(=O)NS(=O)(=O)c1ccccc1-c1ccc(Cn2c(CCC)nc(CC)c2C(=O)NCCCOc2ccccc2)c(F)c1 | 20 nM | 0.4 nM
CCCc1nc(CC)c(C(=O)OCc2ccccc2OC)n1Cc1ccc(-c2ccccc2S(=O)(=O)NC(=O)OCCC(C)C)cc1F | 1 nM | 0.1 nM
CCCc1nc(CC)c(C(=O)OCc2ccccc2-c2ccccc2)n1Cc1ccc(-c2ccccc2S(=O)(=O)NC(=O)OCCC(C)C)cc1F | 9 nM | 3 nM
CCCc1nc(CC)c(C(=O)OCCCN2C(=O)c3ccccc3C2=O)n1Cc1ccc(-c2ccccc2S(=O)(=O)NC(=O)OCCC(C)C)cc1F | 3 nM | 0.1 nM
CCCc1nc(CC)c(C(=O)OCc2ccccc2C(=O)Nc2ccccc2)n1Cc1ccc(-c2ccccc2S(=O)(=O)NC(=O)OCCC(C)C)cc1F | 1 nM | 0.3 nM
CCCc1nc(CC)c(C(=O)OCC(=O)c2ccccc2)n1Cc1ccc(-c2ccccc2S(=O)(=O)NC(=O)OCCC(C)C)cc1F | 2 nM | 0.1 nM
CCCc1nc(CC)c(C(=O)OCc2ccccc2C(=O)c2ccccc2)n1Cc1ccc(-c2ccccc2S(=O)(=O)NC(=O)OCCc2ccccc2)cc1F | 0.69 nM | 0.57 nM
CCCOC(=O)NS(=O)(=O)c1ccccc1-c1ccc(Cn2c(CCC)nc(CC)c2C(=O)OCc2ccccc2-c2ccsc2)c(F)c1 | 20 nM | 0.3 nM
CCCc1nc(CC)c(C(=O)OCC#CC(=O)N(c2ccccc2)c2ccccc2)n1Cc1ccc(-c2ccccc2-c2nn[nH]n2)cc1 | 600 nM | 40 nM
CCCc1nc(CC)c(C(=O)OCc2ccccc2-c2ccsc2)n1Cc1ccc(-c2ccccc2S(=O)(=O)NC(=O)OCCC(C)C)cc1F | 20 nM | 0.6 nM
CCCc1nc(CC)c(C(=O)OC(C(=O)c2ccccc2)c2ccccc2)n1Cc1ccc(-c2ccccc2S(=O)(=O)NC(=O)OCCC(C)C)cc1F (centres undefined) | 3 nM | 0.8 nM

Further lines, results first:

IC50 [1] | IC50 [2] | SMILES
1 nM | 0.3 nM | CCCc1nc(CC)c(C(=O)OCc2ccccc2NC(=O)c2ccccc2)n1Cc1ccc(-c2ccccc2S(=O)(=O)NC(=O)OCCC(C)C)cc1F
2 nM | 0.2 nM | CCCc1nc(CC)c(C(=O)OCCCCOc2ccccc2)n1Cc1ccc(-c2ccccc2S(=O)(=O)NC(=O)OCCC(C)C)cc1F
200 nM | 8 nM | CCCCN(Cc1ccccc1)C(=O)c1ccc(COC(=O)c2c(CC)nc(CCC)n2Cc2ccc(-c3ccccc3-c3nn[nH]n3)cc2)cc1
300 nM | 30 nM | CCCc1nc(CC)c(C(=O)OCc2cccc(C(=O)N(c3ccccc3)c3ccccc3)c2)n1Cc1ccc(-c2ccccc2-c2nn[nH]n2)cc1
500 nM | 30 nM | CCCCN(CCCC)C(=O)CCCOC(=O)c1c(CC)nc(CCC)n1Cc1ccc(-c2ccccc2-c2nnn[nH]2)cc1
9 nM | 0.3 nM | CCCc1nc(CC)c(C(=O)NCCCOc2ccccc2)n1Cc1ccc(-c2ccccc2S(=O)(=O)NC(=O)OCCC(C)C)cc1F
300 nM | 10 nM | CCCCN(Cc1ccccc1)C(=O)CCCOC(=O)c1c(CC)nc(CCC)n1Cc1ccc(-c2ccccc2-c2nn[nH]n2)cc1
1.9 nM | 0.35 nM | CCCc1nc(CC)c(C(=O)OCc2ccccc2C(=O)c2ccccc2)n1Cc1ccc(-c2ccccc2S(=O)(=O)NC(=O)OCCC(C)C)cc1
3000 nM | 3 nM | CCCc1nc(CC)c(C(=O)OCc2ccc(-c3ccccc3)cc2)n1Cc1ccc(-c2ccccc2-c2nnn[nH]2)cc1
2000 nM | 3 nM | CCCc1nc(CC)c(C(=O)OCc2ccccc2-c2ccccc2)n1Cc1ccc(-c2ccccc2-c2nnn[nH]2)cc1
3 nM | 0.5 nM | CCCOC(=O)NS(=O)(=O)c1ccccc1-c1ccc(Cn2c(CCC)nc(CC)c2C(=O)OCc2ccccc2-c2cccs2)c(F)c1
1 nM | 0.1 nM | CCCCCOC(=O)NS(=O)(=O)c1ccccc1-c1ccc(Cn2c(CCC)nc(CC)c2C(=O)OCCC(=O)Nc2ccccc2)c(F)c1
10 nM | 3 nM | CCCc1nc(CC)c(C(=O)OCc2ccccc2OCCC(C)C)n1Cc1ccc(-c2ccccc2S(=O)(=O)NC(=O)OCCC(C)C)cc1F
2 nM | 0.2 nM | CCCc1nc(CC)c(C(=O)OCCCS(=O)(=O)c2ccccc2)n1Cc1ccc(-c2ccccc2S(=O)(=O)NC(=O)OCCC(C)C)cc1F
10 nM | 1 nM | CCCCCCCOC(=O)NS(=O)(=O)c1ccccc1-c1ccc(Cn2c(CCC)nc(CC)c2C(=O)OCc2ccccc2OC)c(F)c1
3 nM | 0.3 nM | CCCc1nc(CC)c(C(=O)OCc2ccccc2C(=O)C(C)(C)C)n1Cc1ccc(-c2ccccc2S(=O)(=O)NC(=O)OCCC(C)C)cc1F
10 nM | 0.3 nM | CCCOC(=O)NS(=O)(=O)c1ccccc1-c1ccc(Cn2c(CCC)nc(CC)c2C(=O)OCc2cccc(C(=O)c3ccccc3)c2)c(F)c1
7 nM | 0.2 nM | CCCc1nc(CC)c(C(=O)OCCN2C(=O)c3ccccc3C2=O)n1Cc1ccc(-c2ccccc2S(=O)(=O)NC(=O)OCCC(C)C)cc1F
5 nM | 0.6 nM | CCCc1nc(CC)c(C(=O)NCc2ccccc2[S+]([O-])c2ccccc2)n1Cc1ccc(-c2ccccc2S(=O)(=O)NC(=O)OCCC(C)C)cc1F (centres undefined)
2.1 nM | 0.74 nM | CCCc1nc(CC)c(C(=O)OCc2ccccc2C(=O)c2ccccc2)n1Cc1ccc(-c2ccccc2S(=O)(=O)NC(=O)OCCc2ccccc2)cc1
300 nM | 2 nM | CCCc1nc(CC)c(C(=O)OCc2ccccc2C(=O)c2ccccc2)n1Cc1ccc(-c2ccccc2-c2nnn[nH]2)cc1
5 nM | 0.2 nM | CCCCN(Cc1ccccc1)C(=O)CCCOC(=O)c1c(CC)nc(CCC)n1Cc1ccc(-c2ccccc2S(=O)(=O)NC(=O)OCCC(C)C)cc1F
0.9 nM | 0.6 nM | CCCc1nc(CC)c(C(=O)OCc2cccc(C(=O)c3ccccc3)c2)n1Cc1ccc(-c2ccccc2S(=O)(=O)NC(=O)OCCC(C)C)cc1F
3 nM | 0.6 nM | CCCCOC(=O)NS(=O)(=O)c1ccccc1-c1ccc(Cn2c(CCC)nc(CC)c2C(=O)OCc2ccccc2Oc2ccccc2)c(F)c1
1000 nM | 9 nM | CCCc1nc(CC)c(C(=O)OCc2cccc(C(=O)c3ccccc3)c2)n1Cc1ccc(-c2ccccc2-c2nn[nH]n2)cc1
1 nM | 0.5 nM | CCCc1nc(CC)c(C(=O)OCc2ccccc2C(=O)c2ccccc2)n1Cc1ccc(-c2ccccc2S(=O)(=O)NC(=O)OCC(C)C)cc1F
2 nM | 0.2 nM | CCCc1nc(CC)c(C(=O)OCc2ccccc2[S+]([O-])c2ccccc2)n1Cc1ccc(-c2ccccc2S(=O)(=O)NC(=O)OCCC(C)C)cc1F (centres undefined)
3 nM | 0.8 nM | CCCc1nc(CC)c(C(=O)OCc2ccccc2-c2cccs2)n1Cc1ccc(-c2ccccc2S(=O)(=O)NC(=O)OCCC(C)C)cc1F

From ChEMBL document CHEMBL1150518, “Balanced angiotensin II receptor antagonists. III. The effects of substitution at the imidazole 5-position” (Bioorg Med Chem Lett, 1994)
